Target: T1, human renal renin (Homo sapiens, UniProt P00797)
T1 construct: human renal renin, free from acid proteolytic activity; from tissue; host or cells: human kidney (from the word 'renal')
T1 sequence (P00797 67-406): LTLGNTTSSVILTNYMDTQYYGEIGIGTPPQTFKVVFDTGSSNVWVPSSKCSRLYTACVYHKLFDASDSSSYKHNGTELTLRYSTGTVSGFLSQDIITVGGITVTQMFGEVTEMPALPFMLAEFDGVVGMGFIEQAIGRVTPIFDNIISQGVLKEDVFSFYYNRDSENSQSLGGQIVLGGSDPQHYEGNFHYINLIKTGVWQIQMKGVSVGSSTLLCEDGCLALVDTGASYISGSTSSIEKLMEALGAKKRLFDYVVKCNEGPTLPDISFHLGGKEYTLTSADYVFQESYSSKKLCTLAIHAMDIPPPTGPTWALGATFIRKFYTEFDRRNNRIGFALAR
Assay: inhibition of human renal renin in vitro, angiotensin I formed measured by radioimmunoassay
Type: biochemical
Details: compound at 10^-5 M; human renin substrate (angiotensinogen), 37° C., pH 6.0
Protocol: At the end of the incubation, the amount of angiotensin I formed is measured by radioimmunoassay and the molor concentration required to cause 50% inhibition, expressed as the IC50, is calculated.

| % inhibition at 10^-5 M [%] | Compound |
| --- | --- |
| 41 | CC(C)CCC(=O)NC(CC(O)C(CC(C)C)NC(=O)[C@H](C)NC(=O)[C@H](Cc1ccccc1)NC(=O)OC(C)(C)C)c1ccccc1 (stereo partly drawn) [Example 42, Boc-Phe-Ala amide of 4-amino-3-hydroxy-6-methyl-1-(4-methylvaleryl)amino-1-phenylheptane] |

Same assay, conditions: human renal renin with human renin substrate (angiotensinogen), 37° C., pH 6.0

| IC50 [nM] | Compound |
| --- | --- |
| 10 | CC(C)CC(NC(=O)C(Cc1ccccc1)NC(=O)OC(C)(C)C)C(=O)N[C@@H](CC1CCCCC1)[C@@H](O)C(F)(F)CS(=O)(=O)C(C)C (stereo partly drawn) [Example 86, Boc-Phe-Leu amide of (3R,4S)-3-hydroxy-4-amino-2,2-difluoro-1-isopropylsulfonyl-5-cyclohexylpentane] |
| 10 | CC(C)CCC(=O)NCC[C@H](O)[C@H](CC1CCCCC1)NC(=O)C(Cc1cscn1)NC(=O)C(Cc1ccccc1)NC(=O)OC(C)(C)C (mixture of isomers) [Example 59, Boc-Phe-dl-4-thiazolylalanine Amide of (3S,4S)-1-(3-Methylbutylcarbonylamino)-3-hydroxy-4-amino-5-cyclohexylpentane] |
| 2 | CC(C)CCC(=O)NCC(F)(F)C(=O)[C@H](CC1CCCCC1)NC(=O)[C@H](CC(C)C)NC(=O)[C@H](Cc1ccccc1)NC(=O)OC(C)(C)C [Example 94, Boc-Phe-Leu amide of (4S)-3-oxo-4-amino-2,2-difluoro-1-isopentylcarbonylamino-5-cyclohexylpentane] |
| 2500 | CC(C)CCS(=O)(=O)CC[C@H](O)[C@H](CC(C)C)NC(=O)[C@H](C)NC(=O)[C@H](Cc1ccccc1)NC(=O)OC(C)(C)C [Example 19, Boc-Phe-Ala amide of (3S,4S)-4-amino-3-hydroxy-1-isoamylsulfonyl-6-methylheptane] |
| 30 | CC(C)CCC(=O)NCC[C@H](O)[C@H](CC1CCCCC1)NC(=O)C(C)NC(=O)C(Cc1ccccc1)NC(=O)OC(C)(C)C (stereo partly drawn) [Example 34, Boc-Phe-Ala Amide of (3S,4S)-1-(3-Methylbutylcarbonylamino)-3-hydroxy-4-amino-5-cyclohexylpentane] |
| 1 | CC(C)CC(NC(=O)C(Cc1ccccc1)NC(=O)OC(C)(C)C)C(=O)N[C@@H](CC1CCCCC1)C(=O)C(F)(F)CS(=O)(=O)C(C)C (stereo partly drawn) [Example 95, Boc-Phe-Leu amide of (4S)-3-oxo-4-amino-2,2-difluoro-1-isopropylsulfonyl-5-cyclohexylpentane] |
| 20 | CC(C)CCC(=O)NCC(F)(F)[C@H](O)[C@H](CC1CCCCC1)NC(=O)C(CC(C)C)NC(=O)C(Cc1ccccc1)NC(=O)OC(C)(C)C (stereo partly drawn) [Example 85, Boc-Phe-Leu amide of (3R,4S)-3-hydroxy-4-amino-2,2-difluoro-1-isopentylcarbonylamino-5-cyclohexylpentane] |
| 25 | CC(C)C[C@H](NC(=O)[C@H](Cc1ccccc1)NC(=O)OC(C)(C)C)C(=O)N[C@@H](CC1CCCCC1)[C@@H](O)C(F)(F)CSC(C)C [Example 83(A), Boc-Phe-Leu amide of (3R,4S)-3-hydroxy-4-amino-2,2-difluoro-1-isopropylmercapto-5-cyclohexylpentane] |
| 2.5 | CC(C)CC(NC(=O)C(Cc1ccccc1)NC(=O)OC(C)(C)C)C(=O)N[C@@H](CC1CCCCC1)C(=O)C(F)(F)CSC(C)C (stereo partly drawn) [Example 93, Boc-Phe-Leu amide of (4S)-3-oxo-4-amino-2,2-difluoro-1-isopropylmercapto-5-cyclohexylpentane] |
| 20 | CC(C)(C)OC(=O)NC(Cc1ccccc1)C(=O)NC(Cc1cnc[nH]1)C(=O)N[C@@H](CC1CCCCC1)[C@@H](O)CCN=[N+]=[N-] (stereo partly drawn) [Example 125, Boc-Phe-His Amide of (3S,4S)-1-Azido-3-hydroxy-4-amino-5-cyclohexylpentane] |
| 2500 | CC(C)CCC(=O)CC[C@H](O)[C@H](CC(C)C)NC(=O)[C@H](C)NC(=O)[C@H](Cc1ccccc1)NC(=O)OC(C)(C)C [Example 30, Boc-Phe-Ala amide of (4S,5S)-4-amino-2,11-dimethyl-5-hydroxy-8-oxododecane] |
| 20 | CC(C)CCC(=O)NCC[C@H](O)[C@H](CC1CCCCC1)NC(=O)C(Cc1ccncn1)NC(=O)[C@H](Cc1ccccc1)NC(=O)OC(C)(C)C (mixture of isomers) [Example 62, Boc-Phe-dl-4-pyrimidinylalanine Amide of (3S,4S)-1-(3-Methylbutylcarbonylamino)-3-hydroxy-4-amino-5-cyclohexylpentane] |
| 15 | CC(C)CCC(=O)NCC[C@H](O)[C@H](CC1CCCCC1)NC(=O)[C@H](Cc1cnc[nH]1)NC(=O)[C@H](Cc1ccccc1)NC(=O)OC(C)(C)C [Example 35, Boc-Phe-His Amide of (3S,4S)-1-(3-Methylbutylcarbonylamino)-3-hydroxy-4-amino-5-cyclohexylpentane] |
| 50 | CC(C)CC(NC(=O)C(Cc1ccccc1)NC(=O)OC(C)(C)C)C(=O)N[C@@H](CC1CCCCC1)[C@@H](O)C(F)=CSC(C)C (stereo partly drawn) [Example 83(B), Boc-Phe-Leu amide of (3R,4S,EZ)-3-hydroxy-4-amino-2-fluoro-1-isopropylmercapto-5-cyclohexyl-1-pentene] |
| 2000 | CC(C)C[C@H](NC(=O)[C@H](C)NC(=O)[C@H](Cc1ccccc1)NC(=O)OC(C)(C)C)[C@@H](O)CCS(=O)(=O)CCc1ccccc1 [Example 18, Boc-Phe-Ala amide of (3S,4S)-4-amino-3-hydroxy-6-methyl-1-phenethylsulfonylheptane] |
| 30 | CC(C)C[C@H](NC(=O)[C@H](Cc1ccccc1)NC(=O)OC(C)(C)C)C(=O)N[C@@H](CC1CCCCC1)[C@@H](O)C(F)(F)CN=[N+]=[N-] [Example 78, Boc-Phe-Leu amide of (3R,4S)-3-hydroxy-4-amino-2,2-difluoro-1-azido-5-cyclohexylpentane] |
| 25 | CCCSCC(=O)NCC[C@H](O)[C@H](CC1CCCCC1)NC(=O)C(Cc1cnc[nH]1)NC(=O)C(Cc1ccccc1)NC(=O)OC(C)(C)C (stereo partly drawn) [Example 67, Boc-Phe-His Amide of (3S,4S)-1-(2-Propylmercaptoacetylamino)-3-hydroxy-4-amino-5-cyclohexylpentane] |
| 20 | CCCS(=O)(=O)CC(=O)NCC[C@H](O)[C@H](CC1CCCCC1)NC(=O)[C@H](Cc1cnc[nH]1)NC(=O)[C@H](Cc1ccccc1)NC(=O)OC(C)(C)C [Example 68, Boc-Phe-His Amide of (3S,4S)-1-(2-Propylsulfonylacetylamino)-3-hydroxy-4-amino-5-cyclohexylpentane] |
| 4000 | CC(C)C[C@H](NC(=O)C(C)NC(=O)C(Cc1ccccc1)NC(=O)OC(C)(C)C)[C@@H](O)CCSCCc1ccccc1 (stereo partly drawn) [Example 16, Boc-Phe-Ala amide of (3S,4S)-4-amino-3-hydroxy-6-methyl-1-phenethylmercaptoheptane] |
| 2.5 | CC(C)C[C@H](NC(=O)[C@H](Cc1ccccc1)NC(=O)OC(C)(C)C)C(=O)N[C@@H](CC1CCCCC1)C(=O)C(F)(F)CN=[N+]=[N-] [Example 88, Boc-Phe-Leu amide of (4S)-3-oxo-4-amino-2,2-difluoro-1-azido-5-cyclohexylpentane] |
| 100 | Boc-Phe-His amide of (3S,4S)-4-amino-3-hydroxy-11-isoamylsulfonyl-6-methylheptane [Example 22] |
| 25 | CC(C)S(=O)(=O)NCC[C@H](O)[C@H](CC1CCCCC1)NC(=O)C(Cc1cnc[nH]1)NC(=O)C(Cc1ccccc1)NC(=O)OC(C)(C)C (stereo partly drawn) [Example 50, Boc-Phe-His Amide of (3S,4S)-1-(2-propylsulfonylamino)-3-hydroxy-4-amino-5-cyclohexylpentane] |
| 2000 | CC(C)C[C@H](NC(=O)C(C)NC(=O)C(Cc1ccccc1)NC(=O)OC(C)(C)C)[C@@H](O)CCOc1ccccc1 (stereo partly drawn) [Example 21, Boc-Phe-Ala amide of (3S,4S)-4-amino-3-hydroxy-6-methyl-1-phenoxyheptane] |
| 4.5 | CC(C)CC(NC(=O)C(Cc1ccccc1)NC(=O)OC(C)(C)C)C(=O)N[C@@H](CC1CCCCC1)[C@@H](O)C(F)=CS(=O)(=O)C(C)C (stereo partly drawn) [Example 87, Boc-Phe-Leu amide of (3R,4S,EZ)-3-hydroxy-4-amino-2-fluoro-1-isopropyl-sulfonyl-5-cyclohexyl-1- pentene] |
| 80 | CC(C)C[C@H](NC(=O)C(Cc1cnc[nH]1)NC(=O)C(Cc1ccccc1)NC(=O)OC(C)(C)C)[C@@H](O)CCS(=O)(=O)CCc1ccccc1 (stereo partly drawn) [Example 23, Boc-Phe-His amide of (3S,4S)-4-amino-3-hydroxy-6-methyl-1-phenethylsulfonylheptane] |
| 20 | CC(C)C[C@H](NC(=O)[C@H](Cc1ccccc1)NC(=O)OC(C)(C)C)C(=O)N[C@@H](CC1CCCCC1)C(=O)/C(F)=C/S(=O)(=O)C(C)C [Example 96, Boc-Phe-Leu amide of (Z,4S)-3-oxo-4-amino-2-fluoro-1-isopropylsulfonyl-5-cyclohexyl-1-pentene] |
| 5500 | CC(C)CCSCC[C@H](O)[C@H](CC(C)C)NC(=O)[C@H](C)NC(=O)[C@H](Cc1ccccc1)NC(=O)OC(C)(C)C [Example 17, Boc-Phe-Ala amide of (3S,4S)-4-amino-3-hydroxy-1-isoamylmercapto-6-methylheptane] |
| 6 | Boc-Phe-dl-3-pyrazolylalanine Amide of (3S,4S)-1-(3-Methylbutylcarbonylamino)-3-hydroxy-4-amino-5-cyclohexylpentane [Example 58] |

| Compound | IC50 [nM] |
| --- | --- |
| CC(C)CCNC(=O)C(CC(O)C(CC(C)C)NC(=O)C(C)NC(=O)C(Cc1ccccc1)NC(=O)OC(C)(C)C)c1ccccc1 (stereo not drawn) [Example 46, Boc-Phe-Ala amide of 5-amino-4-hydroxy-77-methyl-2-phenyloctanoic acid isoamyl amide] | 3000 |

From patent US4857507A, “Angiotensinogen analogs” (Abbott Laboratories, priority 1987, dated 1989)
